In paper PMC11121200 (Acta Pharmaceutica Sinica. B, 2024):

Experiments:
CtMaT1 = test: HPLC initial-rate kinetics, nonlinear regression; assay type: biochemical, Cistanche tubulosa; settings: 2 mmol/L malonyl-CoA as co-substrate, 1 mmol/L DTT, 100 mmol/L potassium phosphate pH 6.0, 30 °C
MatB [1] = molecular target: T1, MatB (Arabidopsis thaliana, UniProt Q8H151); test: HPLC detection of malonyl-CoA formed; assay type: biochemical; settings: 1.5 mmol/L CoA, 3 mmol/L ATP, 5 mmol/L MgCl2, 1 mmol/L DTT, potassium phosphate pH 6.0, 30 °C, 12 h
T1 sequence (Q8H151 1-608): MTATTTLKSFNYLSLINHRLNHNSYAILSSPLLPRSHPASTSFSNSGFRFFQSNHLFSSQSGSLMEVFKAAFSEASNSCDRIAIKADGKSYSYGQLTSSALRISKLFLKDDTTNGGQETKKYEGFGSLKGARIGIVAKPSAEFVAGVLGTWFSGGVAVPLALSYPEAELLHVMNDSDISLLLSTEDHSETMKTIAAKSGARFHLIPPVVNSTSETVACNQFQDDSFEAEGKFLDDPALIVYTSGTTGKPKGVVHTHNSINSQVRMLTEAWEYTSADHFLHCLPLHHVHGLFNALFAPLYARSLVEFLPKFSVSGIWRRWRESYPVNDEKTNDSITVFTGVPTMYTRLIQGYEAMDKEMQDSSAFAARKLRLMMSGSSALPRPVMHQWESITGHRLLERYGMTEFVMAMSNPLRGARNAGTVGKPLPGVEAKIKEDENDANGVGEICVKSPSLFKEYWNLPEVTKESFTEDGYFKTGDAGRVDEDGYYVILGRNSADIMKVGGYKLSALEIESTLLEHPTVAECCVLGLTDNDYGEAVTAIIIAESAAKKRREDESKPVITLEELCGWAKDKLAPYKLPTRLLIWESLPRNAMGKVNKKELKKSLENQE

MatB [2] = molecular target: T1, MatB; settings: 1.5 mmol/L CoA, 3 mmol/L ATP, 5 mmol/L MgCl2, 1 mmol/L DTT, potassium phosphate pH 6.0, 30 °C, 12 h

Km (CtMaT1) [µM] | SMILES | other results
685 ± 25.3 | OC[C@H]1O[C@@H](Oc2cc3c(O)cc(O)cc3[o+]c2-c2ccc(O)c(O)c2)[C@H](O)[C@@H](O)[C@@H]1O [compound 1, cyanidin 3-glucoside] | –
757 ± 58.2 | OC[C@H]1O[C@@H](OCCc2ccc(O)cc2)[C@H](O)[C@@H](O)[C@@H]1O [compound 2, salidroside] | –
– | O=C(O)CC(=O)O [malonic acid] | HPLC detection of malonyl-CoA formed (MatB [1]): made directly from malonic acid in the presence of CoA, ATP, and MatB proteins
– | CC(C(=O)O)C(=O)O [methylmalonic acid] | HPLC detection of methylmalonyl-CoA formed (MatB [2]): MatB could also conduct the synthesis of methyl-MLC
